What was measured:
AEC-I monolayers = experiment: Monolayer permeability, FITC-labeled streptavidin binding to biotin; format: cell-based, rat
Source text: To obtain monolayer rat type-II alveolar epithelial cells (AEC-II), cells were isolated from Sprague-Dawley rats (250-300 g, N=30 purchased from Charles River Laboratories, Wilmington, Mass.) described by Tschumperlin D J, Margulies SS. Equibiaxial deformation-induced injury of alveolar epithelial cells in vitro. Am J Physiol. 1998; 275(6 Pt 1):L1173-83. Epub 1998/12/09 (PubMed PMID: 9843855), with modifications. Briefly, animals were killed and the lungs were harvested. The lung tissue was digested with elastase at 37° C. and distal airways were isolated. Following, cells were placed on rat IgG coated containing no serum for 90 minutes to eliminate contaminating leukocytes and parenchymal cells. This isolation method yielded approximately 95% pure alveolar epithelial cell population. 1.3 million cells were plated on 1 cm diameter fibronectin-coated custom made silastic membranes. In permeability studies, biotin were mixed with fibronectin and membranes were pretreated with oxygen plasma coating to ensure homogenous distribution of the fibronectin. Cells were cultured with 10% fetal bovine serum (FBS)-containing Minimal Essential Medium (MEM) containing low dose antibiotics for 3 days. 32 to 40 monolayers were per rat. On the 3rd day, matured monolayers were randomized to be exposed to one of the treatments for 24 hours (N=3 monolayers/treatment): • A. RNAiMax transfection reagent treatment using serum free media (Opti-MEM, Thermo Fisher Scientific, Waltham, Mass.). This is a negative control for siRNA experiments where serum free media is used for improved transfection efficiency; • B. non-targeting siRNA treatment ([…], Dharmacon) serves a negative control for transfection; • C. […]
The dose of siRNA and PI treatment was selected based on dose-response curves above (FIG. 2A-FIG. 2E). […] All membranes were treated with FITC-labeled streptavidin (Thermo Fisher Scientific) at the end of the experiment and light emission was detected at 488 nm with fluorescent microscopy (Nikon TE300, Melville, N.Y.). […]

[1] = tested on: cleaved caspase 3 (Casp3) in AEC-I monolayers; format: cell-based, rat

Compound	monolayer permeability (AEC-I monolayers; 10 uM salubrinal 2 hrs pretreatment)	Casp3 levels ([1]; salubrinal, unstretched and stretched monolayers)	monolayer permeability (AEC-I monolayers; 1 ug/ml tunicamycin 24 hrs treatment, vs DMSO vehicle control)	cell death measured with cleaved caspase 3 (Casp3) ([1]; tunicamycin 1 μg/ml 24 hrs)
O=C(/C=C/c1ccccc1)NC(NC(=S)Nc1cccc2cccnc12)C(Cl)(Cl)Cl (stereo not shown) [salubrinal]	increased permeability	significant increase	–	–
tunicamycin	–	–	increased permeability	not related to increased cell death
